Experimental data published in patent publication US8415469B2, “Compounds and methods for kinase modulation, and indications therefor” (Plexxikon Inc., priority 2005, dated 2013).

How the values were obtained:
Type in all cases: biochemical
EphB2 = biological target: T1, EphB2 (Homo sapiens, UniProt P29323); experiment: Z'-Lyte FRET kinase assay (Invitrogen), EphB2; settings: read-out: IC50, activity toward kinase EphB2
T1 construct: purchased Invitrogen (assay run by Invitrogen)
T1 sequence (P29323 19-1055): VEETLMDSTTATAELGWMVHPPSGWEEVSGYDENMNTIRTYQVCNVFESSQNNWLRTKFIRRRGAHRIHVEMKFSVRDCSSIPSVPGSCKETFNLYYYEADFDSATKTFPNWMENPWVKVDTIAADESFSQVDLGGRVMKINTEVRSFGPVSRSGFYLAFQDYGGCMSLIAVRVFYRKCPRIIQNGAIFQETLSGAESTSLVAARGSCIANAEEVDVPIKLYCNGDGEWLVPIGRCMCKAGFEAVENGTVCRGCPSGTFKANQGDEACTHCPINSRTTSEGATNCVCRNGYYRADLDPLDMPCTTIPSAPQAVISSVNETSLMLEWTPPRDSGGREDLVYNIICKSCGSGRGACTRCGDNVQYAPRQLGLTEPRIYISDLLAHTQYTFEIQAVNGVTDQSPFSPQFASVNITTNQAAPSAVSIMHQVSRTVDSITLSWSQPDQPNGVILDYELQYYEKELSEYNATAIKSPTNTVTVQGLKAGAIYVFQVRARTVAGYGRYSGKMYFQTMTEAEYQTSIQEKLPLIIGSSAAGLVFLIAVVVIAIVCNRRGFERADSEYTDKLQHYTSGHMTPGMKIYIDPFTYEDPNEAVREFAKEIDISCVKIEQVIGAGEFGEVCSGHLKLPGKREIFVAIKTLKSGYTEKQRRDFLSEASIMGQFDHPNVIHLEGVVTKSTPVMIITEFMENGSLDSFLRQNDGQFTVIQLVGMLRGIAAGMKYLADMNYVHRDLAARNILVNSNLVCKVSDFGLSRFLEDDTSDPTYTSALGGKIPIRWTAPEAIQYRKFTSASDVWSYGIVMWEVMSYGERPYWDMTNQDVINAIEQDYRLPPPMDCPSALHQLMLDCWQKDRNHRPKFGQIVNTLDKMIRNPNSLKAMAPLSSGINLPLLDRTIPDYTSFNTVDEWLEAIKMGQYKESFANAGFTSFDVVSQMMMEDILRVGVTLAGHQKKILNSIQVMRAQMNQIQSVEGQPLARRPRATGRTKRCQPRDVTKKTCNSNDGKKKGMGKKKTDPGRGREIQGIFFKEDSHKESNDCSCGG
Outline: (§1)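 Serially diluted compound (final 1% DMSO) incubated 1 h at room temperature with kinase, 2 μM FRET peptide and 10 μM ATP in pH 7.5 HEPES buffer. Site-specific protease then cleaves unphosphorylated peptide (1 h); inhibition read as increased coumarin-to-fluorescein emission ratio.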

Ret = biological target: T2, Ret (Homo sapiens, UniProt P07949); experiment: AlphaScreen kinase assay, Ret; settings: read-out: IC50, activity toward kinase Ret
T2 construct: P1378.pET-SF BI-PTP RET H661-R1012 HIS; made in house
T2 sequence (P07949 with tags, fused parts or gaps): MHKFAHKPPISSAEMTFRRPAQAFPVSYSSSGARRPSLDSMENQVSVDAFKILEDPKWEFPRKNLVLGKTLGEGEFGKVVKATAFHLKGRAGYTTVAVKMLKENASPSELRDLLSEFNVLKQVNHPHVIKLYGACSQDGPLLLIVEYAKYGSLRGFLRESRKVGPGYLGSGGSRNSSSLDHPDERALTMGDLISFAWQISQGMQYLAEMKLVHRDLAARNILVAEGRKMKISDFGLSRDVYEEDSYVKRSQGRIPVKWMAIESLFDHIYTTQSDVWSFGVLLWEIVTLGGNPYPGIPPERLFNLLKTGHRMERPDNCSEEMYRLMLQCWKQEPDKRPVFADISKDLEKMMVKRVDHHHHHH

B-Raf = biological target: T3, B-Raf (Homo sapiens, UniProt P15056); experiment: AlphaScreen kinase assay, B-Raf; settings: read-out: IC50, activity toward kinase B-Raf
T3 construct: purchased Upstate Biotechnology

B-Raf V600E = biological target: T4, B-Raf V600E (Homo sapiens, UniProt P15056, V600E); experiment: AlphaScreen kinase assay, B-Raf V600E; settings: read-out: IC50, activity toward kinase B-Raf V600E
T4 construct: P4254. pFastBacBD-CDC37 BRAF D437-K722-X, V600E; His6 with pFastBac HT leader (TEV site) (N); made in house; host or cells: Sf9 (baculovirus; chaperone CDC37 co-expressed)

Yes = biological target: T5, Yes (Homo sapiens, UniProt P07947); experiment: Z'-Lyte FRET kinase assay (Invitrogen), Yes; settings: read-out: IC50, activity toward kinase Yes
T5 construct: purchased Invitrogen (Carlsbad, Calif.), screening service
Outline: as §1

T3 sequence (P15056 whole entry): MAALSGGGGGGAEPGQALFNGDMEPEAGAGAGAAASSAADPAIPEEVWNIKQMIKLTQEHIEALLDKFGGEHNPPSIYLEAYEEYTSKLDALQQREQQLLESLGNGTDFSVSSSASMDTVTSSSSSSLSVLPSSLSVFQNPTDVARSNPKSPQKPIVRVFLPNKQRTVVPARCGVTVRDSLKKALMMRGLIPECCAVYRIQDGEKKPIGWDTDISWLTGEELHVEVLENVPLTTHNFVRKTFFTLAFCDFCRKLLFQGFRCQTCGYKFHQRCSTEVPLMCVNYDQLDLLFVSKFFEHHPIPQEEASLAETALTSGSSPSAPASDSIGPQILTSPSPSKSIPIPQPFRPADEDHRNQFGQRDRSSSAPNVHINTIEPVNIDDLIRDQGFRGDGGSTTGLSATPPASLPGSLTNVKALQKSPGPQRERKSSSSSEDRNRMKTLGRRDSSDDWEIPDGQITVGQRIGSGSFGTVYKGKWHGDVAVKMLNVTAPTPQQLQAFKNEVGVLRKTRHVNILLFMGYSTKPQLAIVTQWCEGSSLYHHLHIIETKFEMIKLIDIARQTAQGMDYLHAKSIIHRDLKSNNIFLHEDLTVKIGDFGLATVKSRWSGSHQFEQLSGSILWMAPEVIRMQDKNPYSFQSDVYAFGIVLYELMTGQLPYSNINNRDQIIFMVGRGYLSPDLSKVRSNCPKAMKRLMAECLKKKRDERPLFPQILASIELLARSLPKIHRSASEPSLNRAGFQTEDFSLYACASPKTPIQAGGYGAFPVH
T4 sequence (P15056 with tags, fused parts or gaps V600E): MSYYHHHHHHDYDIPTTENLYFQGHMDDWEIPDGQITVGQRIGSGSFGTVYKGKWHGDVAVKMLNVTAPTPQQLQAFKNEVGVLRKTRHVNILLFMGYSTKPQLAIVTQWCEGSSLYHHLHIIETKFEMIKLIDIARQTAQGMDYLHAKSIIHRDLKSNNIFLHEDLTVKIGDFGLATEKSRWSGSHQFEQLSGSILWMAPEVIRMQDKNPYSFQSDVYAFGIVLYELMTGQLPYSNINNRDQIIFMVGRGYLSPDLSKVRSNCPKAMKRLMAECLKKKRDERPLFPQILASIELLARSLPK
T5 sequence (P07947 whole entry): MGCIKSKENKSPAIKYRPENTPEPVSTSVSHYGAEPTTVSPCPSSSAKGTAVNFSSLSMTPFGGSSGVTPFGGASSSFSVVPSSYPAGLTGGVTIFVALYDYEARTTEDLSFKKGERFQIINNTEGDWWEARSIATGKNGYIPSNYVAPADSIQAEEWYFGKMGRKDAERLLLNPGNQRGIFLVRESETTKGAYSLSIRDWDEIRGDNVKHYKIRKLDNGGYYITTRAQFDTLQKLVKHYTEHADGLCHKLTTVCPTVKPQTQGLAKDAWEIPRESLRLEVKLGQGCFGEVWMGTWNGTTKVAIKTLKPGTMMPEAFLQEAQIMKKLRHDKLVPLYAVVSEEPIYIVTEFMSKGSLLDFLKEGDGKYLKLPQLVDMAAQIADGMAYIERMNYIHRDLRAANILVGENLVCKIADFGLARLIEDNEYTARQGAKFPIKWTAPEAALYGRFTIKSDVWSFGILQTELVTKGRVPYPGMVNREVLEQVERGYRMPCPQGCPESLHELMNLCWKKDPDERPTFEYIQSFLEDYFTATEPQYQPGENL

Row | Compound | IC50 (EphB2) | IC50 (Ret) | IC50 (B-Raf) | IC50 (B-Raf V600E) | IC50 (Yes)
1 | CCCS(=O)(=O)Nc1ccc(F)c(C(=O)c2c[nH]c3ncccc23)c1F [Compound P-0007, Propane-1-sulfonic acid [2,4-difluoro-3-(1H-pyrrolo[2,3-b]pyridine-3-carbonyl)-phenyl]-amide] | ≤ 10 µM | – | ≤ 10 µM | ≤ 10 µM | ≤ 10 µM
2 | O=C(c1cccc(O)c1)c1c[nH]c2ncccc12 [Compound P-0011] | ≤ 10 µM | ≤ 10 µM | – | ≤ 10 µM | ≤ 10 µM
3 | O=C(c1cccc(O)c1)c1c[nH]c2nccc(Cl)c12 [Compound P-0012] | ≤ 10 µM | ≤ 10 µM | – | ≤ 10 µM | ≤ 10 µM
4 | CS(=O)(=O)c1cccc(-c2cnc3[nH]cc(C(O)c4c(F)ccc(F)c4F)c3c2)c1 (stereo not shown) [Compound P-0020] | ≤ 10 µM | ≤ 10 µM | – | – | ≤ 10 µM
5 | O=C(c1ccc(O)cc1Cl)c1c[nH]c2ncccc12 [Compound P-0021] | ≤ 10 µM | – | ≤ 10 µM | ≤ 10 µM | ≤ 10 µM
6 | Nc1cccc(-c2ccnc3[nH]cc(C(=O)c4ccccc4F)c23)c1 [Compound P-0022] | ≤ 10 µM | ≤ 10 µM | – | ≤ 10 µM | ≤ 10 µM
7 | Nc1ccnc2[nH]cc(C(=O)c3ccccc3)c12 [Compound P-0029] | ≤ 10 µM | ≤ 10 µM | – | – | ≤ 10 µM
8 | Cn1cc(C(F)(F)F)c(-c2ccc(S(=O)(=O)NCc3c[nH]c4ncccc34)s2)n1 [Compound P-0041] | ≤ 10 µM | ≤ 10 µM | ≤ 10 µM | ≤ 10 µM | –
9 | Cc1ccccc1C(=O)c1c[nH]c2nccc(-c3cccc(N)c3)c12 [Compound P-0044] | ≤ 10 µM | ≤ 10 µM | – | ≤ 10 µM | ≤ 10 µM
10 | O=C(c1cc(O)ccc1F)c1c[nH]c2ncc(Br)cc12 [Compound P-0068, (5-Bromo-1H-pyrrolo[2,3-b]pyridin-3-yl)-(2-fluoro-5-hydroxy-phenyl)-methanone] | ≤ 10 µM | – | ≤ 10 µM | ≤ 10 µM | ≤ 10 µM
11 | Oc1ccc(F)c(Cc2c[nH]c3ncc(-c4cccnc4)cc23)c1F [Compound P-0078, 2,4-difluoro-3-(5-pyridin-3-yl-1H-pyrrolo[2,3-b]pyridin-3-ylmethyl)-phenol] | ≤ 10 µM | ≤ 10 µM | ≤ 10 µM | ≤ 10 µM | –
12 | Oc1cc(O)cc(Cc2c[nH]c3ncc(-c4ccsc4)cc23)c1 [Compound P-0093] | ≤ 10 µM | – | ≤ 10 µM | ≤ 10 µM | ≤ 10 µM

The next lines start with the values.

Row | IC50 (EphB2) | IC50 (Ret) | IC50 (B-Raf) | IC50 (B-Raf V600E) | IC50 (Yes) | Compound
13 | ≤ 10 µM | ≤ 10 µM | ≤ 10 µM | ≤ 10 µM | – | Cc1c(O)cccc1C(=O)c1c[nH]c2ncc(-c3cccnc3)cc12 [Compound P-0006, (3-Hydroxy-2-methyl-phenyl)-(5-pyridin-3-yl-1H-pyrrolo[2,3b]pyridin-3-yl)-methanone]
14 | ≤ 10 µM | ≤ 10 µM | ≤ 10 µM | ≤ 10 µM | – | Oc1ccc(F)c(C(O)c2c[nH]c3ncc(-c4cccnc4)cc23)c1F (stereo not shown) [Compound P-0009, 2,4-difluoro-3-[hydroxy-(5-pyridin-3-yl-1H-pyrrolo[2,3-b]pyridin-3-yl)-methyl]-phenol]
15 | ≤ 10 µM | ≤ 10 µM | – | ≤ 10 µM | ≤ 10 µM | NC(=O)c1ccc(-c2ccnc3[nH]cc(C(=O)c4cc(F)ccc4F)c23)cc1 [Compound P-0013]
16 | ≤ 10 µM | ≤ 10 µM | – | ≤ 10 µM | ≤ 10 µM | NC(=O)c1ccc(-c2ccnc3[nH]cc(C(=O)c4ccccc4F)c23)cc1 [Compound P-0014]
17 | ≤ 10 µM | ≤ 10 µM | – | ≤ 10 µM | ≤ 10 µM | COc1ccc(C(=O)c2c[nH]c3ncc(-c4cccc(/C=C/C(=O)O)c4)cc23)c(Cl)c1 [Compound P-0015]
18 | ≤ 10 µM | ≤ 10 µM | – | ≤ 10 µM | ≤ 10 µM | Cc1ccccc1C(=O)c1c[nH]c2nccc(-c3ccc(C(N)=O)cc3)c12 [Compound P-0017]
19 | ≤ 10 µM | ≤ 10 µM | ≤ 10 µM | ≤ 10 µM | – | O=C(c1cccc(O)c1)c1c[nH]c2ncc(Nc3ccccc3)cc12 [Compound P-0025]
20 | ≤ 10 µM | ≤ 10 µM | – | ≤ 10 µM | ≤ 10 µM | Cc1ccc(F)cc1C(=O)c1c[nH]c2ncc(-c3cccc(NS(C)(=O)=O)c3)cc12 [Compound P-0028]
21 | ≤ 10 µM | ≤ 10 µM | ≤ 10 µM | ≤ 10 µM | – | O=C(c1cc(O)ccc1F)c1c[nH]c2ncc(-c3cccs3)cc12 [Compound P-0032]
22 | ≤ 10 µM | ≤ 10 µM | – | ≤ 10 µM | ≤ 10 µM | O=C(O)/C=C/c1cccc(-c2cnc3[nH]cc(C(=O)c4ccccc4F)c3c2)c1 [Compound P-0033]
23 | ≤ 10 µM | ≤ 10 µM | ≤ 10 µM | ≤ 10 µM | – | NC(=O)c1cccc(-c2cnc3[nH]cc(C(=O)c4cccc(O)c4F)c3c2)c1 [Compound P-0034, 3-[3-(2-Fluoro-3-hydroxy-benzoyl)-1H-pyrrolo[2,3-b]pyridin-5-yl]benzamide]
24 | ≤ 10 µM | ≤ 10 µM | ≤ 10 µM | ≤ 10 µM | – | CC(=O)Nc1cccc(-c2cnc3[nH]cc(C(=O)c4cccc(O)c4F)c3c2)c1 [Compound P-0035, N-{3-[3-(2-Fluoro-3-hydroxy-benzoyl)-1H-pyrrolo[2,3-b]pyridin-5-yl]-phenyl}-acetamide]
25 | ≤ 10 µM | ≤ 10 µM | ≤ 10 µM | ≤ 10 µM | – | CS(=O)(=O)Nc1cccc(-c2cnc3[nH]cc(C(=O)c4cccc(O)c4F)c3c2)c1 [Compound P-0038, N-{3-[3-(2-Fluoro-3-hydroxy-benzoyl)-1H-pyrrolo[2,3-b]pyridin-5-yl]-phenyl}-methanesulfonamide]
26 | ≤ 10 µM | ≤ 10 µM | – | ≤ 10 µM | ≤ 10 µM | Cc1ccc(F)cc1C(=O)c1c[nH]c2ncc(-c3cccc(N)c3)cc12 [Compound P-0040]
27 | ≤ 10 µM | ≤ 10 µM | – | ≤ 10 µM | ≤ 10 µM | O=C(c1cccc(O)c1)c1c[nH]c2ncc(-c3cccnc3)cc12 [Compound P-0048]
28 | ≤ 10 µM | – | ≤ 10 µM | ≤ 10 µM | ≤ 10 µM | O=C(c1cccc(O)c1F)c1c[nH]c2ncc(Br)cc12 [Compound P-0067, (5-bromo-1H-pyrrolo[2,3-b]pyridin-3-yl)-(2-fluoro-3-hydroxy-phenyl)-methanone]
29 | ≤ 10 µM | ≤ 10 µM | – | ≤ 10 µM | ≤ 10 µM | CC(=O)Nc1cccc(-c2ccnc3[nH]cc(C(=O)c4ccccc4F)c23)c1 [Compound P-0070]
30 | ≤ 10 µM | ≤ 10 µM | ≤ 10 µM | ≤ 10 µM | – | Cc1c(O)cccc1C(=O)c1c[nH]c2ncc(-c3cccs3)cc12 [Compound P-0114, (3-Hydroxy-2-methyl-phenyl)-(5-thiophen-2-yl-1H-pyrrolo[2,3b]pyridin-3-yl)-methanone]
